Measurements: patent US10799605B2 (3B PHARMACEUTICALS GMBH, priority 2014, dated 2020)

Columns and labels:
[1] = target: T1, NTR1 (Homo sapiens (Human), UniProt P30989); experiment: Radioligand binding assay NTR1 (example part I)
Experimental: (§1) In order to determine the binding affinity of compounds comprising a radiolabel for NTR1, a radioligand binding assay was carried out. A radioligand is a radioactive biochemical substance that is used for diagnosis or for research-oriented study of cellular receptor systems of the body. In […] systems it is often used to quantify the binding of a test molecule to the binding site of radioligand. The higher the affinity of the molecule, the more radioligand is displaced from the binding site. The amount of bound radioligand can be measured by scintillation counting and thereby quantified. This assay is commonly used to calculate binding constants of molecules to receptors.
(§2) The NTR1 radioligand binding assay was performed by Cerep (Celle l'Evescault, France; Catalog reference 0109) according to Vita et al., FEBS Lett., 1993, 317, 139-142. NTR1 was prepared from CHO cells recombinantly expressing the human receptor and incubated with 0.05 nM ^125I-(Tyr^3-neurotensin) and serial dilutions of the test compounds. […] The result for each test compound is expressed as IC50 concentration and provides a measure for the affinity of the test compound for NTR1.

[2] = target: T1, NTR1; experiment: Functional Ca2+ mobilisation assay (example part I); assay type: cell-based
Source text: (§3) Ca^2+ ions are usually kept at nanomolar levels in the cytosol of cells, and act in a number of signal transduction pathways as second messengers. […] Changes in calcium ion concentration in standard assay protocols can be readily detected with fluorescent dyes that emit light when changes in intracellular Ca^2+ ion concentration occur. Given the transient nature of these responses, they are often read with instrumentation that has ‘inject and read’ capability.
(§4) HT29 or NTR1-expressing HEK293 cells were trypsinized and seeded into black flat clear-bottom 96-well plates (Corning, Amsterdam, The Netherlands) at […] cells per well. After 24 h incubation at 37° C. and 5% CO2, cells were washed twice with wash buffer (130 mM NaCl, 5 mM KCl, 10 mM Hepes, 2 mM CaCl2, 10 mM Glucose, pH 7.4) and loaded with 100 μl of Ca5 dye (Molecular Devices, Biberach, Germany) for 1 h at 37° C. and 5% CO2. For agonist assays, serial dilutions of agonistic substances were added to the cells loaded with dye and the change of the fluorescent signal was recorded continually for approx. 90 s using a FlexStation II (Molecular Devices, Biberach, Germany). Addition of wash buffer served as a control. Thus, EC50 concentrations for each conjugate were computed and provided a measure for the potency of the substance. For antagonist assays, cells loaded with 100 μl of Ca5-dye were pre-incubated with serial dilutions of antagonistic substances for 30 min, before the EC80-concentration of agonist was added to the cells and the change of the fluorescent signal was recorded continually for approx. 90 s. Thus, IC50 concentrations were computed for each conjugate and provided a measure for the inhibitory activity of the conjugates at the NTR1.

[3] = target: T1, NTR1; experiment: Radioligand binding assay NTR1 (example part II); conditions: 0.05 nM 125I-(Tyr3-neurotensin), 60 min at 4° C.; read-out: IC50 [nM] RLB
Experimental: as §1, §2

[4] = target: T1, NTR1; experiment: Functional Ca2+ mobilisation assay (example part II); assay type: cell-based; conditions: antagonist assay
Source text: as §3, with “intracellular Ca2^+” for “intracellular Ca^2+”
as §4, with “compound” for “conjugate”, “compounds” for “conjugates”

T1 sequence (P30989 whole entry): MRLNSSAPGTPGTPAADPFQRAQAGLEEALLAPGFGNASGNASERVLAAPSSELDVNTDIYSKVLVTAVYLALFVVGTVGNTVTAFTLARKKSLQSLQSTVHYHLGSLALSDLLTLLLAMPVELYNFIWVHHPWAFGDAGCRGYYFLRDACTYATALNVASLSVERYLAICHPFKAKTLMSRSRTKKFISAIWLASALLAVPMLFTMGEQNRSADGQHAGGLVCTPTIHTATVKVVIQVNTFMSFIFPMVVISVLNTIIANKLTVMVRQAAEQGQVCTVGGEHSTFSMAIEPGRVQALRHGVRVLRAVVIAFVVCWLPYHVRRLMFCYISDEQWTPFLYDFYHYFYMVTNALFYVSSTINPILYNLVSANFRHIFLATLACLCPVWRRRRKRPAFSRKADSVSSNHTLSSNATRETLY

| SMILES | IC50 [3] [nM] | IC50 [4] [nM] | IC50 [1] [nM] | EC50 [2] [nM] | IC50 [2] [nM] |
| --- | --- | --- | --- | --- | --- |
| COc1cccc(OC)c1-c1cc(C(=O)NC2(C(=O)O)C3CC4CC(C3)CC2C4)nn1-c1ccc(C(=O)N(C)CCCN(C)CCCN(C)C(=O)CCCC(=O)NCCCOCCOCCOCCCNC(=O)CCC(=O)NCCCOCCOCCOCCCNC(=O)CCC(=O)NCCCOCCOCCOCCCNC(=O)CCC(=O)N[C@@H](CC(N)=O)C(=O)N[C@@H](C)C(=O)N[C@H](C(=O)N2CCC[C@H]2C(=O)N[C@@H](CC(N)=O)C(=O)N[C@@H](CC(C)C)C(=O)N[C@@H](CCCNC(=N)N)C(=O)NCC(=O)N[C@@H](CC(=O)O)C(=O)N[C@@H](CC(C)C)C(=O)N[C@@H](CCC(N)=O)C(=O)N[C@H](C(=O)N[C@@H](CC(C)C)C(=O)N[C@@H](C)C(=O)N[C@@H](CCC(N)=O)C(=O)N[C@@H](CCCCN)C(=O)N[C@H](C(=O)N[C@@H](C)C(=O)N[C@@H](CCCNC(=N)N)C(=O)N[C@H](C(=O)NCCCC(=O)NCCCOCCOCCOCCCNC(=O)CCC(=O)N[C@@H](CCCCNC(=O)CN2CCN(CC(=O)O)CCN(CC(=O)O)CCN(CC(=O)O)CC2)C(N)=O)[C@@H](C)O)C(C)C)C(C)C)C(C)C)cc1C(C)C (stereo partly shown) [(24)] | – | – | 9.9 | > 50000 | 38 |
| COc1cccc(OC)c1-c1cc(C(=O)NC2(C(=O)O)C3CC4CC(C3)CC2C4)nn1-c1ccc(C(=O)N(C)CCCN(C)CCCN(C)C(=O)CCCC(=O)NCCCOCCOCCOCCCNC(=O)CCC(=O)NCCCC[C@H](NC(=O)CCC(=O)NCCCOCCOCCOCCCNC(=O)CCCC(=O)N(C)CCCN(C)CCCN(C)C(=O)c2ccc(-n3nc(C(=O)NC4(C(=O)O)C5CC6CC(C5)CC4C6)cc3-c3c(OC)cccc3OC)c(C(C)C)c2)C(=O)NCCCOCCOCCOCCCNC(=O)CCC(=O)N[C@@H](CC(N)=O)C(=O)N[C@@H](C)C(=O)N[C@H](C(=O)N2CCC[C@H]2C(=O)N[C@@H](CC(N)=O)C(=O)N[C@@H](CC(C)C)C(=O)N[C@@H](CCCNC(=N)N)C(=O)NCC(=O)N[C@@H](CC(=O)O)C(=O)N[C@@H](CC(C)C)C(=O)N[C@@H](CCC(N)=O)C(=O)N[C@H](C(=O)N[C@@H](CC(C)C)C(=O)N[C@@H](C)C(=O)N[C@@H](CCC(N)=O)C(=O)N[C@@H](CCCCN)C(=O)N[C@H](C(=O)N[C@@H](C)C(=O)N[C@@H](CCCNC(=N)N)C(=O)N[C@H](C(=O)NCCCC(=O)NCCCOCCOCCOCCCNC(=O)CCC(=O)N[C@@H](CCCCNC(=O)CN2CCN(CC(=O)O)CCN(CC(=O)O)CCN(CC(=O)O)CC2)C(N)=O)[C@@H](C)O)C(C)C)C(C)C)C(C)C)cc1C(C)C (stereo partly shown) [(25)] | – | – | 7.5 | > 50000 | 12 |
| COc1cccc(OC)c1-c1cc(C(=O)NC2(C(=O)O)C3CC4CC(C3)CC2C4)nn1-c1ccc(C(=O)N(C)CCCN(C)CCCN(C)C(=O)CCC(=O)NCCCOCCOCCOCCCNC(=O)CN2CCN(CC(=O)O)CCN(CC(=O)O)CCN(CC(=O)O)CC2)cc1C(C)C (stereo not shown) [(IIIb), 2-{[1-(4-{[3-({3-[(DOTA-Ttds)-methyl-amino]-propyl}-methyl-amino)-propyl]-methyl-carbamoyl}-2-isopropyl-phenyl)-5-(2,6-dimethoxy-phenyl)-1H-pyrazole-3-carbonyl]-amino}-adamantane-2-carboxylic acid] | 5.2 | 16.6 | – | – | – |
| COc1cccc(OC)c1-c1cc(C(=O)NC2(C(=O)O)C3CC4CC(C3)CC2C4)nn1-c1ccc(C(=O)N(CCCN)CCCN(C)C)cc1C(C)C (stereo not shown) [(V), 2-{[1-{4-[(3-Amino-propyl)-(3-dimethylamino-propyl)-carbamoyl]-2-isopropyl-phenyl}-5-(2,6-dimethoxy-phenyl)-1H-pyrazole-3-carbonyl]-amino}-adamantane-2-carboxylic acid] | 5.3 | 8.95 | – | – | – |

Further compounds by falling IC50 [3], results first:

| IC50 [3] [nM] | IC50 [4] [nM] | SMILES | IC50 [1] [nM] | EC50 [2] [nM] | IC50 [2] [nM] |
| --- | --- | --- | --- | --- | --- |
| 5.7 | 11.8 | COc1cccc(OC)c1-c1cc(C(=O)NC2(C(=O)O)C3CC4CC(C3)CC2C4)nn1-c1ccc(C(=O)N(C)CCCN(C)CCCN(C)C(=O)CCCCCNC(=O)CN2CCN(CC(=O)O)CCN(CC(=O)O)CCN(CC(=O)O)CC2)cc1C(C)C (stereo not shown) [(IIIc), 2-{[1-(4-{[3-({3-[(DOTA-Ahx)-methyl-amino]-propyl}-methyl-amino)-propyl]-methyl-carbamoyl}-2-isopropyl-phenyl)-5-(2,6-dimethoxy-phenyl)-1H-pyrazole-3-carbonyl]-amino}-adamantane-2-carboxylic acid] | – | – | – |
| 4.9 | 21.4 | COc1cccc(OC)c1-c1cc(C(=O)NC2(C(=O)O)C3CC4CC(C3)CC2C4)nn1-c1ccc(C(=O)N(C)CCCN(C)CCCN(C)C(=O)CCC(=O)NCCCOCCOCCOCCCNC(=O)CCC(C(=O)O)N2CCN(CC(=O)O)CCN(CC(=O)O)CC2)cc1C(C)C (stereo not shown) [(IIIe), 2-{[1-(4-{[3-({3-[(NODAGA-Ttds)-methyl-amino]-propyl}-methyl-amino)-propyl]-methyl-carbamoyl}-2-isopropyl-phenyl)-5-(2,6-dimethoxy-phenyl)-1H-pyrazole-3-carbonyl]-amino}-adamantane-2-carboxylic acid] | – | – | – |
| 3.7 | 14.5 | COc1cccc(OC)c1-c1cc(C(=O)NC2(C(=O)O)C3CC4CC(C3)CC2C4)nn1-c1ccc(C(=O)N(C)CCCN(C)CCCN(C)C(=O)CCC(C(=O)O)N2CCN(CC(=O)O)CCN(CC(=O)O)CC2)cc1C(C)C (stereo not shown) [(IIId), 2-{[1-(4-{[3-({3-[(NODAGA)-methyl-amino]-propyl}-methyl-amino)-propyl]-methyl-carbamoyl}-2-isopropyl-phenyl)-5-(2,6-dimethoxy-phenyl)-1H-pyrazole-3-carbonyl]-amino}-adamantane-2-carboxylic acid] | – | – | – |
| 3 | 17.5 | COc1cccc(OC)c1-c1cc(C(=O)NC2(C(=O)O)C3CC4CC(C3)CC2C4)nn1-c1ccc(C(=O)N(C)CCCN(C)CCCN(C)C(=S)Nc2ccc(NC(=S)NCCCCCN(O)C(=O)CCC(=O)NCCCCCN(O)C(=O)CCC(=O)NCCCCCN(O)C(C)=O)cc2)cc1C(C)C (stereo not shown) [(IIIf), 2-({5-(2,6-Dimethoxy-phenyl)-1-[2-isopropyl-4-(methyl-{3-[methyl-(3-{1-methyl-3-[4-(3-DFO-thioureido)-phenyl]-thioureido}-propyl)-amino]-propyl}-carbamoyl)-phenyl]-1H-pyrazole-3-carbonyl}-amino)-adamantane-2-carboxylic] | – | – | – |
| 2.3 | 14.5 | COc1cccc(OC)c1-c1cc(C(=O)NC2(C(=O)O)C3CC4CC(C3)CC2C4)nn1-c1ccc(C(=O)N(C)CCCN(C)CCCN(C)C(=O)c2ccc(F)cc2)cc1C(C)C (stereo not shown) [(IIIg), 2-{[5-(2,6-Dimethoxy-phenyl)-1-(4-{[3-({3-[(4-fluoro-benzoyl)-methyl-amino]-propyl}-methyl-amino)-propyl]-methyl-carbamoyl}-2-isopropyl-phenyl)-1H-pyrazole-3-carbonyl]-amino}-adamantane-2-carboxylic acid] | – | – | – |
| 0.87 | 7.54 | CNCCCN(C)CCCN(C)C(=O)c1ccc(-n2nc(C(=O)NC3(C(=O)O)C4CC5CC(C4)CC3C5)cc2-c2c(OC)cccc2OC)c(C(C)C)c1 (stereo not shown) [(III), 2-({5-(2,6-Dimethoxy-phenyl)-1-[2-isopropyl-4-(methyl-{3-[methyl-(3-methylamino-propyl)-amino]-propyl}-carbamoyl)-phenyl]-1H-pyrazole-3-carbonyl}-amino)-adamantane-2-carboxylic acid] | – | – | – |
